# Reference: the supplement of paper PMC4862054
# Experiments:
# Conditions in all cases: incubation time: 72 h
# BT-474 [1] = experiment: normalised response (% of control), CellTox Green; higher = less cell death (100 = DMSO, 0 = benzethonium chloride kill control)
# Summary of the method: (§1)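 Values are normalised signals, each belonging to one concentration of the series. Breast cancer cells (20 µl suspension) were seeded into 384-well plates with compound at 5 concentrations in 10-fold steps over a compound-specific 10,000-fold range and incubated 72 h. Readouts were CellTox Green fluorescence (485/520 nm), then CellTiter-Glo luminescence after 10 min at room temperature, with each plate set to 0.1 % DMSO as 100 and a positive kill control as 0.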
# BT-549 [2] = experiment: as above
# Summary of the method: as §1
# CAL-120 [3] = experiment: as above
# Summary of the method: as §1
# CAL-148 [4] = experiment: as above
# Summary of the method: as §1
# CAL-51 [5] = experiment: as above
# Summary of the method: as §1
# CAL-85-1 [6] = experiment: as above
# Summary of the method: as §1
# DU-4475 [7] = experiment: as above
# Summary of the method: as §1
# HCC1143 [8] = experiment: as above
# Summary of the method: as §1
# HCC1599 [9] = experiment: as above
# Summary of the method: as §1
# HCC1937 [10] = experiment: as above
# Summary of the method: as §1
# HDQ-P1 [11] = experiment: as above
# Summary of the method: as §1
# Hs578T [12] = experiment: as above
# Summary of the method: as §1
# MCF-10A [13] = experiment: as above
# Summary of the method: as §1
# MDA-MB-231 [14] = experiment: as above
# Summary of the method: as §1
# MDA-MB-436 [15] = experiment: as above
# Summary of the method: as §1
# MDA-MB-453 [16] = experiment: as above
# Summary of the method: as §1
# MFM-223 [17] = experiment: as above
# Summary of the method: as §1
# BT-474 [18] = experiment: normalised response (% of control), CellTiter-Glo; higher = more viable cells (100 = DMSO, 0 = benzethonium chloride kill control)
# Summary of the method: as §1
# BT-549 [19] = experiment: as above
# Summary of the method: as §1
# CAL-120 [20] = experiment: as above
# Summary of the method: as §1
# CAL-148 [21] = experiment: as above
# Summary of the method: as §1
# CAL-51 [22] = experiment: as above
# Summary of the method: as §1
# CAL-85-1 [23] = experiment: as above
# Summary of the method: as §1
# DU-4475 [24] = experiment: as above
# Summary of the method: as §1
# HCC1143 [25] = experiment: as above
# Summary of the method: as §1
# HCC1599 [26] = experiment: as above
# Summary of the method: as §1
# HCC1937 [27] = experiment: as above
# Summary of the method: as §1
# HDQ-P1 [28] = experiment: as above
# Summary of the method: as §1
# Hs578T [29] = experiment: as above
# Summary of the method: as §1
# MCF-10A [30] = experiment: as above
# Summary of the method: as §1
# MDA-MB-231 [31] = experiment: as above
# Summary of the method: as §1
# MDA-MB-436 [32] = experiment: as above
# Summary of the method: as §1
# MDA-MB-453 [33] = experiment: as above
# Summary of the method: as §1
# MDA-MB-468 [34] = experiment: as above
# Summary of the method: as §1
# MFM-223 [35] = experiment: as above
# Summary of the method: as §1
# SK-BR-3 = experiment: as above
# Summary of the method: as §1
# MDA-MB-468 [36] = experiment: normalised response (% of control), CellTox Green; higher = less cell death (100 = DMSO, 0 = benzethonium chloride kill control)
# Summary of the method: as §1
Structure (SMILES),normalised response (BT-474 [1]),normalised response (BT-549 [2]),normalised response (CAL-120 [3]),normalised response (CAL-148 [4]),normalised response (CAL-51 [5]),normalised response (CAL-85-1 [6]),normalised response (DU-4475 [7]),normalised response (HCC1143 [8]),normalised response (HCC1599 [9]),normalised response (HCC1937 [10]),normalised response (HDQ-P1 [11]),normalised response (Hs578T [12]),normalised response (MCF-10A [13]),normalised response (MDA-MB-231 [14]),normalised response (MDA-MB-436 [15]),normalised response (MDA-MB-453 [16]),normalised response (MFM-223 [17]),normalised response (BT-474 [18]),normalised response (BT-549 [19]),normalised response (CAL-120 [20]),normalised response (CAL-148 [21]),normalised response (CAL-51 [22]),normalised response (CAL-85-1 [23]),normalised response (DU-4475 [24]),normalised response (HCC1143 [25]),normalised response (HCC1599 [26]),normalised response (HCC1937 [27]),normalised response (HDQ-P1 [28]),normalised response (Hs578T [29]),normalised response (MCF-10A [30]),normalised response (MDA-MB-231 [31]),normalised response (MDA-MB-436 [32]),normalised response (MDA-MB-453 [33]),normalised response (MDA-MB-468 [34]),normalised response (MFM-223 [35]),normalised response (SK-BR-3),normalised response (MDA-MB-468 [36])
S=P(N1CC1)(N1CC1)N1CC1 [Thio-TEPA] (5000 nM),100%,109%,100%,102%,29.6%,95.8%,99.2%,62.1%,93.5%,109%,96%,85.2%,109%,109%,94.6%,101%,98.8%,94.4%,91.7%,96.5%,93%,68.9%,97.2%,102%,96.1%,112%,96.4%,99.5%,108%,100%,96.2%,97.4%,109%,100%,105%,105%,
CO[C@H]1C[C@@H]2CC[C@@H](C)[C@@](O)(O2)C(=O)C(=O)N2CCCC[C@H]2C(=O)O[C@H]([C@H](C)C[C@@H]2CC[C@@H](OP(C)(C)=O)[C@H](OC)C2)CC(=O)[C@H](C)/C=C(\C)[C@@H](O)[C@@H](OC)C(=O)[C@H](C)C[C@H](C)/C=C/C=C/C=C/1C [Ridaforolimus] (10 nM),99.1%,134%,91.5%,93.3%,110%,94.9%,99.8%,73%,103%,110%,,49.6%,109%,122%,88.2%,104%,100%,89.1%,56%,66.3%,64.5%,59.9%,69.9%,77%,65%,109%,68.4%,81.2%,61.6%,89.5%,87.1%,76%,63.6%,59.8%,72.8%,62.6%,124%
CNC(=O)c1ccc(N2C(=S)N(c3ccc(C#N)c(C(F)(F)F)c3)C(=O)C2(C)C)cc1F [Enzalutamide] (1000 nM),96%,87%,104%,65.4%,93.4%,105%,107%,117%,90.2%,,54.2%,96.4%,107%,90.5%,89.5%,111%,,102%,96.8%,95.9%,104%,74.1%,91.7%,103%,101%,107%,96.8%,95.9%,106%,107%,95.7%,92.8%,95.7%,92.6%,97.7%,100%,131%
COC(=O)c1ccc2c(c1)NC(=O)/C2=C(\Nc1ccc(N(C)C(=O)CN2CCN(C)CC2)cc1)c1ccccc1 [Nintedanib] (1000 nM),97.9%,111%,101%,,105%,107%,98.5%,,98.1%,80.7%,96%,94.1%,105%,102%,107%,103%,89.4%,101%,83.5%,85.2%,94.6%,83.2%,97.2%,87.6%,98.8%,98.9%,89.4%,69.1%,93.4%,59.3%,92%,99.4%,96.2%,96.8%,59.2%,86%,162%
COc1cc(O)c2c(c1)/C=C/C[C@H](O)[C@H](O)C(=O)/C=C\C[C@H](C)OC2=O [(5Z)-7-Oxozeaenol] (1000 nM),99%,79.5%,102%,15.5%,115%,35.6%,74.4%,129%,103%,-12.2%,66.1%,64.6%,103%,57.4%,112%,103%,,71.5%,40.3%,94.2%,79.5%,106%,42.8%,8.27%,96.9%,92%,76.1%,71.5%,91.1%,56.9%,72%,81.3%,118%,56.5%,90.4%,115%,140%
COc1cc2/c(=N/c3ccc(Br)cc3F)nc[nH]c2cc1OCC1CCN(C)CC1 [Vandetanib] (100 nM),98%,102%,83%,88.6%,70.7%,98.6%,92%,85.6%,87%,,,92%,103%,85.4%,84.2%,90.5%,98.8%,84.7%,89%,94.4%,96.5%,83.3%,99.3%,90.1%,86.2%,102%,90.6%,83%,94.1%,57.3%,89.2%,91.2%,88%,83.5%,82.5%,77.7%,67.6%
